Test results from patent publication US20150219624A1, “METHODS FOR IDENTIFYING ANTI-CANCER COMPOUNDS” (MEMORIAL SLOAN KETTERING CANCER CENTER, priority 2013, published 2015).

Key:
renal carcinoma lines = test: Silvestrol sensitivity of renal carcinoma lines; format: cell-based; conditions: ACHN, A498, CAKI-1, CAKI-2 to 786-O
KOPTK1 cells = test: Polysome profiling; format: cell-based, human; conditions: 25 nM, 45 minutes
Method: Polysome profiling. KOPTK1 cells were treated with silvestrol or DMSO for 45 minutes, followed by cycloheximide treatment for 10 minutes. Cell pellet was lysed in polysome lysis buffer (300 mM NaCl, 15 mM Tris-HCl (pH 7.5), 15 mM MgCl2, 1% TritonX-100, 0.1 mg/ml Cycloheximide, 1 mg/ml Heparin). Polysome fractions were isolated using 4 ml 10-50% sucrose density gradients (300 mM NaCl, 100 mM MgCl2, 15 mM Tris-HCl (pH 7.5), 1 mg/ml Cycloheximide, 10 mg/ml Heparin). Gradients were centrifuged in an SW40Ti rotor at 35,000 rpm for 2 hrs. Fractions of 100 ul were collected manually from the top, and optical density (OD) at […] was measured.
FIG. 10 depicts ribosome profiling quality control data and effects on translation. A and B) Read counts by length of mapped sequence before and after filtering rRNA, linker reads, non-coding RNAs, short mapped sequences (“noisy” reads; see text and method for details). C and D) Read length frequency histograms and mapping analysis of ribosome footprint data after quality control filtering for vehicle treated cells (C) or silvestrol treated cells (D). […] F) Histogram of all genes' ribosome footprint intensity (measured as unique read number per million per gene, RPM) for silvestrol and vehicle treated cells indicating silvestrol affected mRNAs were broadly distributed (see text for details). […]

GQ construct = test: Luciferase reporter with four 12-mer motifs (GQs) vs random control 5'UTR; format: cell-based; conditions: 25 nM, 24 hours
Method: Luciferase assays. Four tandem repeats of the (CGG)4 12-mer motif (GQs) or random sequence matched for length and GC content (random) were cloned into the 5′UTR of Renilla luciferase plasmid pGL4.73. Empty firefly luciferase plasmid pGL4.13 or HCV-IRES firefly were used as internal controls. Luciferase assays were performed using Dual-Luciferase Reporter Assay System (Promega E1960) following the manufacturer's instructions. GQs sequence:
Next, directly testing the translational effect of the 12-mer sequence motif was sought. Briefly, a luciferase reporter system was constructed to directly compare four 12-mer motifs in tandem reflecting the common occurrence of multiple motifs in sensitive mRNAs (GQ construct) to a random sequence of equal length and GC content (control construct) and using an IRES-driven firefly luciferase as an internal control (FIG. 4E). […] The RNA helicases DHX9 and DHX36 have been implicated in resolving G-quadruplex structures (Booy et al., 2012; Chakraborty and Grosse, 2011), however predominant expression was found of eIF4A in T-ALL (FIG. 4G) (Van Vlierberghe et al., 2011). Further direct testing was done of the effect of RNAi-mediated eIF4A knockdown in the same assay and a striking decrease in the translation from the GQ reporter observed, with little effect on the control sequence (FIG. 4H/I). […]

murine T-ALL cells = test: Silvestrol effect on murine T-ALL cells with engineered genetic lesions; format: cell-based; conditions: cells expressing Akt, mutant IL7R, eIF4E or shRNA against Pten

COC(=O)[C@H]1[C@@H](O)[C@@]2(O)c3c(OC)cc(O[C@@H]4O[C@@H]([C@H](O)CO)CO[C@H]4OC)cc3O[C@@]2(c2ccc(OC)cc2)[C@@H]1c1ccccc1 [silvestrol]
sensitivity (renal carcinoma lines): range of sensitivities | polyribosome bound RNA (fractions 30-40) (KOPTK1 cells): loss of polyribosome bound RNA | translation of the GQ construct (GQ construct; normalized to IRES firefly): reduced the translation | translation of the control luciferase (GQ construct; random sequence control construct): did not reduce the translation | sensitivity of murine T-ALL cells (murine T-ALL cells): no significant difference in sensitivity
